The results in this text go back to patent US20190125753A1, “COMPOUNDS AND METHODS FOR INCREASING HEMATOPOIESIS” (University of Southern California, priority 2016, published 2019).

In assay [1] the target is T1, interaction between β-catenin and p300 (Mus musculus, UniProt B2RWS6).
T1 construct: endogenous in cells; host or cells: mouse myoblast C2C12 cells
The experiment in a line: Co-immunoprecipitation (pull-down) in C2Cl2 myoblast cells. The class given is cell-based. The settings on record: C2Cl2 cells treated 24 hours. As to the method: YH249 and YH250 were selected from the compounds described herein for further testing. Co-immunoprecipitation (CO-IP) was performed with mouse myoblast C2Cl2 cells. Cells were treated with DMSO (control), or YH249, or YH250 for 24 hours. Cell lyses were pulled down with anti-p300 or anti-CBP antibodies, run on gel and probed with anti-β-catenin antibody. […] A biotinylated version of YH249 (Bio-249) was prepared via the propargyl amide variant. Using a biotin with a linker and a terminal azide residue, we were able to couple the biotin to the YH249 core via a 3+2 cyclization reaction to provide Bio-249. Bio-249 was incubated with lysates from C2Cl2 myoblasts, either in the presence or absence of competitor YH249 for 4 h at 4° C. and then bound to streptavidin agarose beads. After extensive washing the bound proteins were eluted and run out on an […].

Assay [2] deals with bone marrow cells. The experiment in a line: Bone marrow CFC recovery after 7Gy radiation. Format: in vivo, mouse. How it is done:
According to particular aspects of the present invention, if YH250 can stimulate 7Gy irradiated animal HSPC proliferation/expansion, the compound may accelerate the recovery of the hematopoiesis from radiation damage. We first tested if YH250 treatment accelerates bone marrow cell CFC activities, the more differentiated cells. After 7Gy radiation and either DMSO or YH250 administration 24 hours post radiation, bone marrow cells were recovered at different time points (day 6, 11, 13, 15 post treatment) and CFC assays were performed (FIG. 19A). […] Consistent with increased colony numbers, there are more cells from plates of YH250 treated cells.

Assay [3] concerns bone marrow HSPC. In words: Competitive repopulation assay with bone marrow of 7Gy irradiated mice. Format: in vivo, mouse. As to the method:
In the hematopoietic system, the LTR-HSC or pluripotent HSC sits atop the hematopoietic hierarchy. LTR-HSCs subsequently generate “Short Term Repopulating” hematopoietic stem cells (STR-HSC), and then progenitor cells. After radiation induced myeloid-ablation, there is a significant loss of progenitor cells. To investigate the target cell population in irradiated mice, YH250 or DMSO were administrated to 7Gy irradiated animals 24 hours post radiation. Then, 7 or 14 days post radiation (6 or 13 days after YH250 or DMSO administration), bone marrow cells were recovered from animals and competitive repopulation assay was performed to study YH250 function in stimulating HSPC proliferation. 1×10^6 testing bone marrow cells were mixed with 2×10^5 competitor cells (from non-irradiated mice) and injected into lethally irradiated mice (9Gy) (FIG. 18A). HSPC cell number will be reflected in the short-term (1-2 months after BMT) or long-term (≥4 month of BMT) engraftment. […] The same observation also applies to cells isolated 14th day post 7Gy radiation.
The expanded LTR-HSC at day 6 post YH250 stimulation then starts to develop and give more STR-HSC by day 14 post radiation. There is no further LTR-HSC expanding from day 6 to day 13 post YH250. Thus, one dose of YH250 administrated 24 hours post 7Gy radiation stimulated symmetric non-differentiation LTR-HSC expansion and followed with STR-HSC expansion.

[4] abbreviates: bone marrow cells recovered day 7 post radiation.
[5] abbreviates: bone marrow cells recovered day 14 post radiation.

T1 sequence (B2RWS6 2-2412 limits assumed): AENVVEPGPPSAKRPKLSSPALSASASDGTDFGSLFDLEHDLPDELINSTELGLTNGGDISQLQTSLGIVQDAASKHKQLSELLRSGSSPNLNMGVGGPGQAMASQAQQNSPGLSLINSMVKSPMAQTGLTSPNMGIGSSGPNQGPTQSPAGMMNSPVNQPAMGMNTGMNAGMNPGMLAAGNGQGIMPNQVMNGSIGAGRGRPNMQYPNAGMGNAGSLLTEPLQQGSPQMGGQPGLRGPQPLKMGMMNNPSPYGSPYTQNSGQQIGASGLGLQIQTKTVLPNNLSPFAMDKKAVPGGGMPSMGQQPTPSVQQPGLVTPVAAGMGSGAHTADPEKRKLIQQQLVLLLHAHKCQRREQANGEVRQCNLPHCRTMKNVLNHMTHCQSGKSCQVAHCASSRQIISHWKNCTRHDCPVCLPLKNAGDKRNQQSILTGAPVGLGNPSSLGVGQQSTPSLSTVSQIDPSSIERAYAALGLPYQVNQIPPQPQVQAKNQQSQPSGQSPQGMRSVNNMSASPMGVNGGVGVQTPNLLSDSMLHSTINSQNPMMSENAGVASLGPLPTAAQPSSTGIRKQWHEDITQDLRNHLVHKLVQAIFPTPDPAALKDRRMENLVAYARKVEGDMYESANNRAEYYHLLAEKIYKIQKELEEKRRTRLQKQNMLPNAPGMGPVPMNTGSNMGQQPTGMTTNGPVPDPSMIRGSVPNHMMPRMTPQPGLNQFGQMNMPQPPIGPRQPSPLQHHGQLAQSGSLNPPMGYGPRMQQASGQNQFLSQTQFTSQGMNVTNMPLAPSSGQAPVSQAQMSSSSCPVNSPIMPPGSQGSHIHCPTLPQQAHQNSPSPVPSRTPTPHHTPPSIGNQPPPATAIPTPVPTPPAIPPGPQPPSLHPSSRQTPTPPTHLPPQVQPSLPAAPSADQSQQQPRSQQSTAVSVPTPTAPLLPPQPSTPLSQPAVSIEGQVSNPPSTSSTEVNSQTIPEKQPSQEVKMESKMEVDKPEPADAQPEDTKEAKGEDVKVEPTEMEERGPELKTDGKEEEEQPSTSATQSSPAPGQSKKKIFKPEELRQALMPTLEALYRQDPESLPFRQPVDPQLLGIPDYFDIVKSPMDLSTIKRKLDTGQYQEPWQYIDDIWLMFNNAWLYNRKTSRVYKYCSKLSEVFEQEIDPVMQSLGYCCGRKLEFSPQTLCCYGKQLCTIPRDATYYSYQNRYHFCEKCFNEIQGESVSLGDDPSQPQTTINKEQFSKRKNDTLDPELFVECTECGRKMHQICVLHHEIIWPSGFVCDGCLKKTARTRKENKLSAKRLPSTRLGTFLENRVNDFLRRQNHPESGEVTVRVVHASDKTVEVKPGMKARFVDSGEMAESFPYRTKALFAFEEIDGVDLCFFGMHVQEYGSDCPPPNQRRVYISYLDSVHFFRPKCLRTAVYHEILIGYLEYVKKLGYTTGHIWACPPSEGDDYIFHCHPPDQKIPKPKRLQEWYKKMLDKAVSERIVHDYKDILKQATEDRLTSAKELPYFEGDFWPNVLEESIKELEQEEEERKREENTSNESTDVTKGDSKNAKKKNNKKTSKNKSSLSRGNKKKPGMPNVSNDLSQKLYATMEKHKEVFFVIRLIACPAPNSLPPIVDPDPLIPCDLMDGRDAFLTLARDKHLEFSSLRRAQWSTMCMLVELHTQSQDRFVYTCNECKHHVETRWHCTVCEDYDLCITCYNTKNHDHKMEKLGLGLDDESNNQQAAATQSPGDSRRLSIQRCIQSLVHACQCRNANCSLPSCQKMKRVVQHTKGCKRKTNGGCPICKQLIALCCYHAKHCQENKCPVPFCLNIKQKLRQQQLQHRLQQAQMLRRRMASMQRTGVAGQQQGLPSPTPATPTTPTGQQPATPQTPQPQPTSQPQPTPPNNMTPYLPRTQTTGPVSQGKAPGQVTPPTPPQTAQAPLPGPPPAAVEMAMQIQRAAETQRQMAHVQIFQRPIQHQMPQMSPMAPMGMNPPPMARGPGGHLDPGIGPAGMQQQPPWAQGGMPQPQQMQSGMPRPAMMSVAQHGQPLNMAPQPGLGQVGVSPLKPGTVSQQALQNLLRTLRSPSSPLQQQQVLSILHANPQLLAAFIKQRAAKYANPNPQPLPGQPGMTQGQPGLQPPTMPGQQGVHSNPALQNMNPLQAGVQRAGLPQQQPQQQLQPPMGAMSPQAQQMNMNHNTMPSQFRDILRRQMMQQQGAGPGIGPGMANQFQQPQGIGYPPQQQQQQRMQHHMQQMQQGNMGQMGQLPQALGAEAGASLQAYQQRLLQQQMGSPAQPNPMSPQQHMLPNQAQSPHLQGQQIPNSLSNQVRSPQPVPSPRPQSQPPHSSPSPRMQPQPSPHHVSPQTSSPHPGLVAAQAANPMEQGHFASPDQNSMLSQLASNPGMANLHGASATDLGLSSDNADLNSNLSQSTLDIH

On to `COc1cccc(CNC(=O)N2C3CN(Cc4cc(Cl)cc(Cl)c4N(C)C)C(=O)[C@H](Cc4ccc(O)cc4)N3C(=O)CN2C)c1OC` (some centres unmarked) [YH250], for which, in assay [1], the “β-catenin in the p300 pull down lane” value is “significantly decreased levels of β-catenin”. In addition, in assay [2] (7Gy radiation), the “cells from CFC plates” value is “more cells”. Further, in assay [2] (14th day post 7Gy radiation), the “colonies in CFC assay vs DMSO treated mice” value is recorded as “significantly more colonies”. The long-term engraftment turned out to be 4.1±1.6 in assay [3] (setting [4]) and 3.4±0.57 in assay [3] (setting [5]). Besides, the short term engraftment in assay [3] (setting [4]) is 5.8±2.4; in assay [3] (setting [5]), 12.3±2.0. Moreover, the “engraftment vs DMSO treated animals, short term and long term” value in assay [3] (cells recovered 7th day post 7Gy radiation, one dose 24 hours post radiation) was “better engraftment”.
